Experimental data as given in patent US5512576A, “2-substituted 1,2,5,-thiadiazolidin-3-one 1,1-dioxides and compositions and method of use thereof” (Sterling Winthrop Inc., priority 1994, dated 1996).

Molecular target: T1, human leukocyte elastase (Homo sapiens, UniProt P08246)
T1 sequence (P08246 30-267): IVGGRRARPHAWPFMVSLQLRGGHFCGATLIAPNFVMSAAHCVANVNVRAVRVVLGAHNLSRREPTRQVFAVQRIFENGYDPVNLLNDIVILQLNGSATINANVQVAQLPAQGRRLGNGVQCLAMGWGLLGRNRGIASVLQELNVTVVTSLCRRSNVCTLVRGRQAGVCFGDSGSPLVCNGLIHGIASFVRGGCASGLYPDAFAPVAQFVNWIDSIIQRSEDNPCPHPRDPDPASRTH
Assay: human leukocyte elastase (HLE) inhibition, in vitro, substrate MeOSuc-Ala-Ala-Pro-Val-pNA
Type: biochemical
Settings: pH 7.8 at 25° C., absorbance at 410 nm, read-out: Ki, human leukocyte elastase inhibitory activity
Experimental: The test compound (inhibitor) is dissolved in DMSO in a vial to produce an inhibitor stock solution which has a concentration in the range of 200-1000 μM. The inhibitor stock solution is diluted (1:4, 1:16 and 1:64) into assay vials (vials 1, 2 and 3 respectively) containing 2.4 mL of buffer solution (50 mM N- 2-hydroxyethyl!piperazine-N'- 2-ethanesulfonic acid!/NaOH, 500 mM NaCl, pH 7.8 at 25° C.) and DMSO is added so that the total volume in each vial is 3.2 mL. 70 μL, 50 μL, 35 μL and 25 μL of inhibitor from assay vial 1 is placed into the first four wells of a 96-well microtiter plate and each well is made up to 90 μL total volume with the addition of a 25% DMSO/buffer solution. […]
The 96-well microtiter plate is placed into a Microplate Reader #89815A spectrophotometer and 110 BL of the enzyme solution (prepared as follows: a mixture of 20 mL of buffer solution and 20 mg of bovine serum albumen is gently vortexed in a scintillation vial and 5 BL HLE stock solution (1 mg/mL dissolved in deionized water) is added) is added simultaneously to each of the 16 wells. Each of the solutions in the wells is throughly mixed and then the time-dependent absorbance data is collected at an absorbance of 410 nm until the assay is complete. […]
A plot of the absorbance versus time data thus obtained affords progress curves the final slope of which is equal to the final steady-state velocities (VF). […]

- Ki: 0.79 nM
SMILES: CC(C)CCC1C(=O)N(COc2cc(=O)n3ccccc3n2)S(=O)(=O)N1C (stereo not shown) [Example 1(j), 2-(4-oxo-4-H-pyrido 1,2-a!pyrimidin-2-yl-oxymethyl)-4-(3-methylbutyl)-5-methyl-1,2,5-thiadiazolidin-3-one 1,1-dioxide]
